From ChEMBL document CHEMBL4616586, “Design, synthesis and biological evaluation of substituted flavones and aurones as potential anti-influenza agents” (Bioorg Med Chem, 2020)
Activity calls are given as the source filed them. The rule behind the calls is not given here.

Assays:
[1] = system: Influenza A virus; experiment: Antiviral activity against Influenza A virus (H1N1) infected in dog MDCK cells assessed as reduction in log2HA titer incubated for 3 to 4 days by CPE assay; type: functional, organism-based
[2] = Cytotoxicity against dog MDCK cells assessed as reduction in cell viability by MTT assay; type: cell-based, Canis lupus familiaris
[3] = Selectivity index, ratio of CC50 for dog MDCK cells to EC50 for Influenza A virus (H1N1) infected in dog MDCK cells; type: toxicity, cell-based; details: read-out: Ratio CC50/EC50
[4] = target: Neuraminidase (Influenza A virus (A/Puerto Rico/8/1934(H1N1)), UniProt P03468); experiment: Inhibition of Influenza A virus (H1N1) neuraminidase
Neuraminidase (Influenza A virus (A/Puerto Rico/8/1934(H1N1)), UniProt P03468), sequence (P03468 whole entry): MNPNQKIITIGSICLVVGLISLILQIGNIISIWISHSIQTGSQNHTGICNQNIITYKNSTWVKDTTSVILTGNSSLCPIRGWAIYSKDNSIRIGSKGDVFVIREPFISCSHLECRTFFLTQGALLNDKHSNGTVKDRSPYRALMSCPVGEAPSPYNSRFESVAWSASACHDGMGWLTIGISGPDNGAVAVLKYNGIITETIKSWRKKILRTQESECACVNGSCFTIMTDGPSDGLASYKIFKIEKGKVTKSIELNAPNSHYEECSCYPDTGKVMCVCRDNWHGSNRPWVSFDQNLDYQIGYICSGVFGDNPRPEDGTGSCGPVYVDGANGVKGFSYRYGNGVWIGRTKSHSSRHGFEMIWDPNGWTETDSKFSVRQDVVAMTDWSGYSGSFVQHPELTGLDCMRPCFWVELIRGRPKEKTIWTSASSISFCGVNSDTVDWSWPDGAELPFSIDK

[5] = target: Neuraminidase (Influenza A virus (A/Puerto Rico/8/1934(H1N1))) (UniProt P03468); experiment: Non-competitive inhibition of Influenza A virus (H1N1) neuraminidase by Lineweaver-Burk plot analysis
Neuraminidase (Influenza A virus (A/Puerto Rico/8/1934(H1N1))), sequence (P03468 whole entry): as above

Row | SMILES | EC50 [1] [µM] | CC50 [2] [µM] | selectivity ratio [3] | IC50 [4] [µM] | inhibition [5]
1 | O=C1/C(=C/c2ccc([N+](=O)[O-])cc2)Oc2ccccc21 | 0.0463 | 213 | 4600 | 41 | –
2 | O=c1cc(-c2ccc(Cl)cc2)oc2ccccc12 | 0.0359 | 115 | 3210 | 27.7 | –
3 | COc1cccc(/C=C2\Oc3ccccc3C2=O)c1 [3'-METHOXY-AURONE] | – | 7.81 | – | – | –
4 | O=c1c(O)c(-c2ccc(O)c(O)c2)oc2cc(O)cc(O)c12 [QUERCETIN] | 0.0845 | – | 3010 | 7.75 | Active
5 | O=C1/C(=C/c2cccc(Cl)c2)Oc2ccccc21 | – | 26.9 | – | – | –
6 | O=C1/C(=C/c2ccc(Cl)cc2)Oc2ccccc21 | 0.0514 | 272 | 5300 | 45.4 | –
7 | COc1ccc(/C=C2\Oc3ccccc3C2=O)cc1 [4'-METHOXY-AURONE] | 0.0353 | 169 | 4800 | 37.5 | Active
8 | COc1ccccc1/C=C1\Oc2ccccc2C1=O [(Z)-2'-METHOXYAURONE] | – | 273 | – | – | –
9 | COc1cccc(-c2cc(=O)c3ccccc3o2)c1 | 0.0126 | 263 | 21000 | 10.8 | –
10 | CCC(CC)O[C@@H]1C=C(C(=O)O)C[C@H](N)[C@H]1NC(C)=O [OSELTAMIVIR CARBOXYLATE] | 0.0071 | 713 | – | – | –
11 | O=c1cc(-c2ccccc2Cl)oc2ccccc12 | – | 388 | – | – | –
12 | O=c1cc(-c2cccc(Cl)c2)oc2ccccc12 | 0.0477 | 174 | 3650 | 32.6 | –
13 | O=c1cc(-c2cccc([N+](=O)[O-])c2)oc2ccccc12 | 0.0141 | 269 | 19100 | 15.4 | –
14 | O=C1/C(=C/c2ccccc2Cl)Oc2ccccc21 | – | 339 | – | – | –
15 | COc1ccccc1-c1cc(=O)c2ccccc2o1 | – | 171 | – | – | –
16 | COc1ccc(-c2cc(=O)c3ccccc3o2)cc1 [4'-METHOXYFLAVONE] | 0.00936 | 192 | 20500 | 8.74 | Active
17 | O=C1/C(=C/c2cccc([N+](=O)[O-])c2)Oc2ccccc21 | – | 396 | – | – | –
